How the values were obtained:
IL-17AA and IL-17RA = target: T1, IL-17AA and IL-17RA (Homo sapiens, UniProt Q16552); experiment: Competitive inhibition of human IL-17AA and IL-17RA binding (HTRF); conditions: recombinant IL-17AA (His-tag) and IL-17RA (hFc-tag); read-out: IC50 for Inhibiting IL-AA/IL-RA Binding
T1 construct: purchased Sino Biological 12047-H07B (IL-17AA); 10895-H02H (IL-17RA)
T1 sequence (Q16552 24-155): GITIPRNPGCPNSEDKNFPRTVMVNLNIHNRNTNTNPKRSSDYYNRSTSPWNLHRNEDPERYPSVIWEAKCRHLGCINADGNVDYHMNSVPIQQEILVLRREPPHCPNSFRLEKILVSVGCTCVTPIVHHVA
Procedure, shortened: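 His-IL-17AA (1 nM) premixed 1 h with anti-His-Tb (0.4 nM), and Fc-IL-17RA (1 nM) with anti-IgG-d2 (1 μg/mL); these are pre-mix levels. Compounds, diluted from 10 μM, preincubated 2 h RT with IL-17AA mix; IL-17RA mix then added, 20 min. 665/615 ratio vs no-compound and no-IL-17AA controls; IC50 by 4-parameter fit.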

[1] = tested on: IL-17AA-induced IL-17 signaling pathway; experiment: Inhibition of IL-17AA-induced IL-17 signaling pathway in HEK-Blue IL-17 reporter cells (SEAP); type: cell-based; conditions: Homo sapiens; HEK-Blue IL-17 cells, IL-17AA 2.5 ng/mL, 20 hours; read-out: IC50 for Inhibiting IL-AA Signaling
Procedure, shortened: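 HEK-Blue IL-17 cells (HEK293 expressing human IL-17RA/RC, ACT1 and NF-κB/AP-1-driven SEAP), 10,000/well, pre-incubated with compound (serial dilution from 10 μM) for 1 h at 37 °C, then stimulated with IL-17AA at 2.5 ng/mL final for 20 h. SEAP in supernatant read with Quanti-Blue at 620 nm; IC50 by 4-parameter fit.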

[2] = tested on: IL-17AF-induced IL-17 signaling pathway; experiment: Inhibition of IL-17AF-induced IL-17 signaling pathway; type: cell-based; conditions: Homo sapiens; IL-17AF used instead of IL-17AA; read-out: IC50 for Inhibiting IL-AF Signaling
Procedure, shortened: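 HEK293-derived HEK-Blue IL-17 cells (IL-17RA/RC, ACT1, NF-κB/AP-1-driven SEAP) preincubated 1 hour at 37° C with serially diluted compound from 10 μM, then stimulated with IL-17AF for 20 hours. SEAP read colorimetrically at 620 nm; IC50 from 4-parameter fit of % inhibition.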

SMILES | IC50 (IL-17AA and IL-17RA) | IC50 [1] | IC50 [2]
CCn1nccc1C(=O)N[C@H](C(=O)Nc1ccc([C@H](C)[C@@H](NC(=O)COC)c2ncnn2CC2CC2)cc1OC)C(C1CC1)C1CC1 [Compound 45, N-((S)-1,1-dicyclopropyl-3-((4-((1R,2S)-1-(1-(cyclopropylmethyl)-1H-1,2,4-triazol-5-yl)-1-(2-methoxyacetamido)propan-2-yl)-2-methoxyphenyl)amino)-3-oxopropan-2-yl)-1-ethyl-1H-pyrazole-5-carboxamide] | 153 nM | 194 nM | 1210 nM
CCn1nccc1C(=O)N[C@H](C(=O)Nc1ncc([C@H](C)[C@@H](NC(=O)COC)c2ncnn2CC2CC2)cc1F)C(C1CC1)C1CC1 [Compound 46, N-((S)-1,1-dicyclopropyl-3-((5-((1R,2S)-1-(1-(cyclopropylmethyl)-1H-1,2,4-triazol-5-yl)-1-(2-methoxyacetamido)propan-2-yl)-3-fluoropyridin-2-yl)amino)-3-oxopropan-2-yl)-1-ethyl-1H-pyrazole-5-carboxamide] | 29 nM | 124 nM | 159 nM
CCn1nccc1C(=O)N[C@H](C(=O)Nc1ccc([C@H](C)[C@@H](NC(=O)COC)c2ncnn2CC2CC2)cn1)C(C1CC1)C1CC1 [Compound 48, N-((S)-1,1-dicyclopropyl-3-((5-((1R,2S)-1-(1-(cyclopropylmethyl)-1H-1,2,4-triazol-5-yl)-1-(2-methoxyacetamido)propan-2-yl)pyridin-2-yl)amino)-3-oxopropan-2-yl)-1-ethyl-1H-pyrazole-5-carboxamide] | 41 nM | 13 nM | 202 nM
CCn1nccc1C(=O)N[C@H](C(=O)Nc1ccc([C@H](C)[C@@H](NC(=O)CO)c2ncnn2CC2CC2)cc1F)C(C1CC1)C1CC1 [Compound 49, N-((S)-1,1-dicyclopropyl-3-((4-((1R,2S)-1-(1-(cyclopropylmethyl)-1H-1,2,4-triazol-5-yl)-1-(2-hydroxyacetamido)propan-2-yl)-2-fluorophenyl)amino)-3-oxopropan-2-yl)-1-ethyl-1H-pyrazole-5-carboxamide] | 28 nM | 93 nM | 87 nM
CCn1ncnc1C(=O)N[C@H](C(=O)Nc1ccc([C@H](C)[C@@H](NC(=O)COC)c2ncnn2CC2CC2)cc1F)C(C1CC1)C1CC1 [Compound 50, N-((S)-1,1-dicyclopropyl-3-((4-((1R,2S)-1-(1-(cyclopropylmethyl)-1H-1,2,4-triazol-5-yl)-1-(2-methoxyacetamido)propan-2-yl)-2-fluorophenyl)amino)-3-oxopropan-2-yl)-1-ethyl-1H-1,2,4-triazole-5-carboxamide] | 5.6 nM | 7.9 nM | 26 nM
CCn1nccc1C(=O)N[C@H](C(=O)Nc1ccc([C@H](C)[C@@H](NC(=O)CN2CCC2)c2ncnn2CC2CC2)cc1F)C(C1CC1)C1CC1 [Compound 51, N-((S)-1-((4-((1R,2S)-1-(2-(azetidin-1-yl)acetamido)-1-(1-(cyclopropylmethyl)-1H-1,2,4-triazol-5-yl)propan-2-yl)-2-fluorophenyl)amino)-3,3-dicyclopropyl-1-oxopropan-2-yl)-1-ethyl-1H-pyrazole-5-carboxamide] | 50 nM | 178 nM | 211 nM
CCn1nccc1C(=O)N[C@H](C(=O)Nc1ccc([C@H](C)[C@@H](NC(=O)COC)c2ncnn2CCN2CCN(C)CC2)cc1F)C(C1CC1)C1CC1 [Compound 52, N-((S)-1,1-dicyclopropyl-3-((2-fluoro-4-((1R,2S)-1-(2-methoxyacetamido)-1-(1-(2-(4-methylpiperazin-1-yl)ethyl)-1H-1,2,4-triazol-5-yl)propan-2-yl)phenyl)amino)-3-oxopropan-2-yl)-1-ethyl-1H-pyrazole-5-carboxamide] | 182 nM | 2220 nM | 2730 nM
COCC(=O)N[C@@H](c1ncnn1CC1CC1)[C@@H](C)c1ccc(NC(=O)[C@@H](NC(=O)c2ccnn2C)C(C2CC2)C2CC2)c(F)c1 [Compound 53, N-((S)-1,1-dicyclopropyl-3-((4-((1R,2S)-1-(1-(cyclopropylmethyl)-1H-1,2,4-triazol-5-yl)-1-(2-methoxyacetamido)propan-2-yl)-2-fluorophenyl)amino)-3-oxopropan-2-yl)-1-methyl-1H-pyrazole-5-carboxamide] | 7.4 nM | 5.6 nM | 16 nM
COCC(=O)N[C@@H](c1nnnn1CC1CC1)[C@@H](C)c1ccc(NC(=O)[C@@H](NC(=O)c2nonc2C)C(C2CC2)C2CC2)c(F)c1 [Compound 54, N-((S)-1,1-dicyclopropyl-3-((4-((1R,2S)-1-(1-(cyclopropylmethyl)-1H-tetrazol-5-yl)-1-(2-methoxyacetamido)propan-2-yl)-2-fluorophenyl)amino)-3-oxopropan-2-yl)-4-methyl-1,2,5-oxadiazole-3-carboxamide] | 3 nM | 3.6 nM | 16 nM
Cc1nonc1C(=O)N[C@H](C(=O)Nc1ccc([C@H](C)[C@@H](NC(=O)COC2CNC2)c2ncnn2CC2CC2)cc1F)C(C1CC1)C1CC1 [Compound 55, N-((S)-1-((4-((1R,2S)-1-(2-(azetidin-3-yloxy)acetamido)-1-(1-(cyclopropylmethyl)-1H-1,2,4-triazol-5-yl)propan-2-yl)-2-fluorophenyl)amino)-3,3-dicyclopropyl-1-oxopropan-2-yl)-4-methyl-1,2,5-oxadiazole-3-carboxamide] | 40 nM | 142 nM | 210 nM
Cc1nonc1C(=O)N[C@H](C(=O)Nc1ccc([C@H](C)[C@@H](NC(=O)COC2CN(C)C2)c2ncnn2CC2CC2)cc1F)C(C1CC1)C1CC1 [Compound 56, N-((S)-1,1-dicyclopropyl-3-((4-((1R,2S)-1-(1-(cyclopropylmethyl)-1H-1,2,4-triazol-5-yl)-1-(2-((1-methylazetidin-3-yl)oxy)acetamido)propan-2-yl)-2-fluorophenyl)amino)-3-oxopropan-2-yl)-4-methyl-1,2,5-oxadiazole-3-carboxamide] | 13 nM | 78 nM | 145 nM
Cc1nonc1C(=O)N[C@H](C(=O)Nc1ccc([C@H](C)[C@@H](NC(=O)CO)c2ncnn2CC2CC2)cc1F)C(C1CC1)C1CC1 [Compound 57, N-((S)-1,1-dicyclopropyl-3-((4-((1R,2S)-1-(1-(cyclopropylmethyl)-1H-1,2,4-triazol-5-yl)-1-(2-hydroxyacetamido)propan-2-yl)-2-fluorophenyl)amino)-3-oxopropan-2-yl)-4-methyl-1,2,5-oxadiazole-3-carboxamide] | 6.8 nM | 95 nM | 88 nM
[2H]C([2H])([2H])OCC(=O)N[C@@H](c1ncnn1CC1CC1)[C@@H](C)c1ccc(NC(=O)[C@@H](NC(=O)c2nonc2C)C(C2CC2)C2CC2)c(F)c1 [Compound 58, N-((S)-1,1-dicyclopropyl-3-((4-((1R,2S)-1-(1-(cyclopropylmethyl)-1H-1,2,4-triazol-5-yl)-1-(2-(methoxy-d3)acetamido)propan-2-yl)-2-fluorophenyl)amino)-3-oxopropan-2-yl)-4-methyl-1,2,5-oxadiazole-3-carboxamide] | 1.4 nM | 5 nM | 3.8 nM
CCn1nccc1C(=O)N[C@H](C(=O)Nc1ccc([C@H](C)[C@@H](NC(=O)COC)c2nnc(C3CCN3C)s2)cc1F)C(C1CC1)C1CC1 (stereo partly drawn) [Compound 59, N-((2S)-1,1-dicyclopropyl-3-((2-fluoro-4-((1R,2S)-1-(2-methoxyacetamido)-1-(5-(1-methylazetidin-2-yl)-1,3,4-thiadiazol-2-yl)propan-2-yl)phenyl)amino)-3-oxopropan-2-yl)-1-ethyl-1H-pyrazole-5-carboxamide] | 235 nM | 946 nM | 1550 nM
Cc1nonc1C(=O)N[C@H](C(=O)Nc1ccc([C@H](C)[C@@H](NC(=O)COC2CC2)c2ncnn2CC2CC2)cc1F)C(C1CC1)C1CC1 [Compound 60, N-((S)-1-((4-((1R,2S)-1-(2-cyclopropoxyacetamido)-1-(1-(cyclopropylmethyl)-1H-1,2,4-triazol-5-yl)propan-2-yl)-2-fluorophenyl)amino)-3,3-dicyclopropyl-1-oxopropan-2-yl)-4-methyl-1,2,5-oxadiazole-3-carboxamide] | 1.7 nM | 3.3 nM | 3.9 nM
COCC(=O)N[C@@H](c1ncnn1CCN(C)C)[C@@H](C)c1ccc(NC(=O)[C@@H](NC(=O)c2nonc2C)C(C2CC2)C2CC2)c(F)c1 [Compound 61, N-((S)-1,1-dicyclopropyl-3-((4-((1R,2S)-1-(1-(2-(dimethylamino)ethyl)-1H-1,2,4-triazol-5-yl)-1-(2-methoxyacetamido)propan-2-yl)-2-fluorophenyl)amino)-3-oxopropan-2-yl)-4-methyl-1,2,5-oxadiazole-3-carboxamide] | 12 nM | 39 nM | 74 nM

— patent publication US20260083708A1, “IL-17 MODULATORS AND USES THEREOF” (NNOCARE PHARMA INC., priority 2024, published 2026)
